Measurements taken from patent publication US20090252680A1, “NOVEL COMPOUND WITH AFFINITY FOR AMYLOID” (NIHON- MEDI-PHYSICS CO., LTD, priority 2006, published 2009).
Read-outs that look alike come from different tables or passages of the source.

How the values were obtained:
[1] = Measurement of partition coefficient based on the octanol extraction method; conditions: octanol / 10 mmol/L phosphate buffer (pH 7.4)
Procedure: To 2 mL of octanol, 10 μL each of the prepared sample solutions was respectively added, and 2 mL of a 10 mmol/L phosphate buffer (pH 7.4) was further added, followed by stirring for 30 seconds. After the mixture was centrifuged with a low-speed centrifuge (2000 rpm×60 min.), the octanol layer and the water layer were sampled each in an amount of 1 mL, and subjected to measurement of radioactivity count with an autowell gamma system (Type: ARC-301B, manufactured by Aloka). Using the obtained radioactivity count, logPoctanol was calculated in accordance with the equation (2).

[2] = biological target: T1, intracerebral amyloid (Homo sapiens, UniProt P05067); assay: Confirmation of imaging of amyloid in brain (autoradiogram of brain slice, amyloid injected into amygdaloid nucleus); format: in vivo, male Wistar rat; conditions: 60 minutes after intravenous injection
T1 construct: Aβ1-42 (manufactured by Wako); purchased Wako
Procedure: (§1) (1) Aβ1-42 (manufactured by Wako) was dissolved in phosphate buffer (pH 7.4) and shaken at 37° C. for 72 hours, to obtain a 1 mg/mL suspension of aggregated Aβ (hereinafter referred to as amyloid suspension in this Example).
(§2) (2) 2.5 μL (corresponding to 25 μg) of the amyloid suspension was injected under thiopental anesthesia into an amygdaloid nucleus on one side of a male Wistar rat (7-week old). As a control, 2.5 μL of a phosphate buffered physiological saline solution (pH 7.4) was injected into an amygdaloid nucleus on the other side of the rat. The rats were examined 1 day after the injection of the amyloid suspension and the phosphate buffered physiological saline solution (pH 7.4).
(§3) This sample solution was injected under thiopental anesthesia into the rat through the tail vein (dosage: 0.5 mL, dosed radioactivity: 16 MBq equivalent).
(§4) (4) Brain was removed 60 minutes after the injection to prepare a brain slice of 10 μm in thickness with a microtome (type: CM3050S, manufactured by LEICA). The brain slice was exposed to an imaging plate for 20 hours, and then image analysis was carried out by use of a Bio-imaging Analyzer (type: BAS-2500; manufactured by FUJIFILM Corporation).
(§5) (5) After the completion of the image analysis using the Bio-imaging Analyzer, pathological staining with Thioflavin T was carried out to perform imaging by use of a fluorescence microscope (manufactured by NIKON Corporation; type: TE2000-U model; excitation wavelength: 400-440 nm; detection wavelength: 470 nm).

[3] = tested on: intracerebral amyloid; assay: as above; format: in vivo, male Wistar rat; conditions: 60 minutes after intravenous injection, control side
Procedure: as §1, §2, §3, §4, §5

[4] = Measurement of transferability into brain and clearance; conditions: rats, intravenous injection (tail vein); for Radioactive accumulation per unit weight of brain, after 2 min.: 2 min after injection; for Radioactive accumulation per unit weight of brain, after 5 min.: 5 min after injection; for Radioactive accumulation per unit weight of brain, after 30 min.: 30 min after injection; for Radioactive accumulation per unit weight of brain, after 60 min.: 60 min after injection
Procedure: The rats were sacrificed by bleeding from abdominal artery, and brains were removed and subjected to measurement of mass of brains and further subjected to measurement of radioactivity (hereinafter referred to as A in this Example) with a single channel analyzer (detector type: SP-20 manufactured by OHYO KOKEN KOGYO Co., Ltd.) 2, 5, 30 and 60 minutes after the injection. Also, radioactivity (hereinafter referred to as B in this Example) of the remain of the whole body was measured in the same manner as above.
The same procedures as above were performed to calculate radioactive accumulation per unit weight of brain (% ID/g) at the respective time points (Comparative Example 2).
Three animals were used for Example 15, Example 16 and Reference Example 2 at the respective time points.

[5] = biological target: amyloid (aggregated Aβ1-42) (Homo sapiens, UniProt P05067)
Description: Affinity of the present compounds with amyloid was examined by the following in vitro binding tests.

[6] = [11C]-labeled, rats; cited from earlier work
[7] = [125I]-labeled, normal mice; cited from earlier work
[8] = tested on: amyloid; conditions: [125I]-labeled compounds; cited from earlier work

T1 sequence (P05067 672-713): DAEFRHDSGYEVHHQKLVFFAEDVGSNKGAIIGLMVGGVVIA
Chain of amyloid (aggregated Aβ1-42) (P05067 672-713): as above

| SMILES | logPoctanol value [1] | Accumulation of radioactivity in the amygdaloid nucleus on the side injected with amyloid suspension [2] | Accumulation of radioactivity in the amygdaloid nucleus on the side injected with physiological saline solution [3] | Radioactive accumulation per unit weight of brain, after 2 min. [4] [% ID/g] | Radioactive accumulation per unit weight of brain, after 5 min. [4] [% ID/g] | Radioactive accumulation per unit weight of brain, after 30 min. [4] [% ID/g] | Radioactive accumulation per unit weight of brain, after 60 min. [4] [% ID/g] | Clearance from normal tissues [7] | Transfer into brain [7] | also measured |
| --- | --- | --- | --- | --- | --- | --- | --- | --- | --- | --- |
| Fc1ccc(-c2cn3cc([123I])ccc3n2)cc1 | 2.3 | marked accumulation of radioactivity | no significant accumulation of radioactivity | 1.00 | 0.72 | 0.12 | 0.05 | – | – | – |
| COc1ccc2nc(-c3ccc([125I])cc3)cn2c1 [[^125I]-2-(4′-iodophenyl)-6-methoxyimidazo[1,2-a]pyridine] | – | – | – | – | – | – | – | – | – | Binding to amyloid [5]: capable of binding to amyloid; Radioactive count (A−B) specifically binding to amyloid versus amyloid concentration ([5]; amyloid 25, 62.5, 250, 625 and 1000 nmol/L, 22° C., 3 hours): showed a tendency to increase with increment of the concentration of amyloid |
| CNc1ccc(/C=C/c2ccc(O)cc2)cc1 [SB-13, (E)-4-methylamino-4′-hydroxystilbene] | – | – | – | – | – | – | – | – | – | Clearance from normal tissues [6]: it cannot be said that the clearance is sufficiently fast |
| COc1ccc2nc(-c3ccc([123I])cc3)cn2c1 | 2.3 | marked accumulation of radioactivity | no significant accumulation of radioactivity | 1.26 | 0.89 | 0.19 | 0.09 | – | – | – |
| COc1ccc(-c2cn3cc([123I])ccc3n2)cc1 | 1.7 | marked accumulation of radioactivity | no significant accumulation of radioactivity | 1.04 | 0.72 | 0.12 | 0.04 | – | – | – |
| CN(C)c1ccc(-c2nc3ccc(I)cc3o2)cc1 [IBOX, 6-iodo-2-[4′-(N,N-dimethylamino)phenyl]benzoxazole] | – | – | – | – | – | – | – | insufficient in clearance from normal tissues | transferred into brain 2 minutes after administration | – |
| CN(C)c1ccc(-c2nc3ccc(I)cc3s2)cc1 [TZDM, 6-iodo-2-[4′-(N,N-dimethylamino)phenyl]benzothiazole] | – | – | – | – | – | – | – | insufficient in clearance from normal tissues | transferred into brain 2 minutes after administration | – |
| CN(C)c1ccc(-c2cn3cc(I)ccc3n2)cc1 [IMPY, 6-iodo-2-[4′-(N,N-dimethylamino)phenyl]imidazo[1,2-a]pyridine] | – | – | – | – | – | – | – | – | – | Clearance from normal tissues [8]: rapid clearance from normal tissues; Transfer to brain and accumulation at amyloid [8]: transferring to brain and accumulating at amyloid after administration |
| CN(C)c1ccc(/C=C/c2ccc(I)cc2)cc1 [m-I-SB, (E)-4-dimethylamino-4′-iodostilbene] | – | – | – | – | – | – | – | insufficient in clearance from normal tissues | transferred into brain 2 minutes after administration | – |
| CN(C)c1ccc(-c2cn3cc([123I])ccc3n2)cc1 [[^123I]-IMPY, reference compound] | 1.9 | – | – | 1.19 | 0.97 | 0.23 | 0.09 | – | – | – |
